# Reference: patent EP0013144A1, “Substituted diphenylamine derivatives, compositions and herbicidal uses thereof, and processes for their preparation” (ICI AUSTRALIA LIMITED, priority 1978, dated 1980)
# Columns and labels:
# Assay type in all cases: in vivo
# [1] = test system: Ryegrass; assay: Pre-emergence herbicidal activity (Example 31); set-up: key: 0-3 scale: 0 = 0-25% damage, 3 = 75-99% kill, 3+ = 100% kill; conditions: after three weeks
# Method in brief: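 Ratings run from 0 (0–25% damage) to 3 (75–99% kill), with 3+ meaning complete kill, assessed visually three weeks after spraying. Treatment was applied to soil right after sowing, before germination was triggered by overhead watering in the glasshouse.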
# [2] = test system: Wheat; assay: Post-emergence herbicidal activity (Example 32); set-up: key: 0-3 scale: 0 = 0-25% damage, 3 = 75-99% kill, 3+ = 100% kill; conditions: 3 weeks after spraying
# Method in brief: (§1)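 Compounds applied as diluted emulsifiable concentrates (toluene with nonylphenol ethoxylate/calcium dodecylbenzene sulfonate) or ball-milled aqueous suspensions, sprayed onto glasshouse plants about 10–12.5 cm tall. Damage assessed visually 3 weeks later versus untreated controls on a 0–3 scale (0 = 0–25% damage, 3 = 75–99% kill, 3+ = 100% kill).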
# [3] = test system: Ipomea; assay: Post-emergence herbicidal activity (Example 32); conditions: 3 weeks after spraying
# Method in brief: as §1
# [4] = test system: Japanese millet; assay: Post-emergence herbicidal activity (Example 32); conditions: 3 weeks after spraying
# Method in brief: as §1
# [5] = test system: Mustard; assay: Post-emergence herbicidal activity (Example 32); conditions: 3 weeks after spraying
# Method in brief: as §1
# [6] = test system: Ryegrass; assay: Post-emergence herbicidal activity (Example 32); conditions: 3 weeks after spraying
# Method in brief: as §1
# [7] = test system: Sunflower; assay: Post-emergence herbicidal activity (Example 32); conditions: 3 weeks after spraying
# Method in brief: as §1
# [8] = test system: Maize; assay: Pre-emergence herbicidal test, fibre trays (Example 33); set-up: key: 0 = 0-20% damage, 5 = complete kill, vs untreated control; conditions: 2.0 kg/ha, after 21 days
# Method in brief: (§2)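 Formulation: test cpd in Span 80/Tween 20 emulsion in methylcyclohexanone, diluted to spray volume with water. Post-em: spray onto young pot plants, score d14. Pre-em: seeds in soil slit in fibre trays, levelled, sprayed, thin fresh soil cover, score d21. Scale 0–5 vs untreated.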
# [9] = test system: Rice; assay: as above; set-up: key: 0 is 0 to 20% damage; 5 is complete kill; conditions: 2.0 kg/ha, after 21 days
# Method in brief: as §2
# [10] = test system: Cotton; assay: as above; conditions: 2.0 kg/ha, after 21 days
# Method in brief: as §2
# [11] = test system: Sugar beet; assay: as above; conditions: 2.0 kg/ha, after 21 days
# Method in brief: as §2
# [12] = test system: Maize; assay: Post-emergence herbicidal test, young pot plants (Example 33); set-up: key: 0 is 0 to 20% damage; 5 is complete kill; conditions: 2.0 kg/ha, after 14 days
# Method in brief: as §2
# [13] = test system: Rice; assay: as above; set-up: key: 0 is 0 to 20% damage; 5 is complete kill; conditions: 2.0 kg/ha, after 14 days
# Method in brief: as §2
# [14] = test system: Winter wheat; assay: as above; set-up: key: 0 = 0-20% damage, 5 = complete kill, vs untreated control; conditions: 2.0 kg/ha, after 14 days
# Method in brief: as §2
# [15] = test system: Amaranthus retroflexus; assay: as above; conditions: 2.0 kg/ha, after 14 days
# Method in brief: as §2
# [16] = test system: Chenopodium album; assay: as above; conditions: 2.0 kg/ha, after 14 days
# Method in brief: as §2
# [17] = test system: Cotton; assay: as above; conditions: 2.0 kg/ha, after 14 days
# Method in brief: as §2
# [18] = test system: Ipomea purpurea; assay: as above; conditions: 2.0 kg/ha, after 14 days
# Method in brief: as §2
# [19] = test system: Soy bean; assay: as above; conditions: 2.0 kg/ha, after 14 days
# Method in brief: as §2
# [20] = test system: Sugar beet; assay: as above; conditions: 2.0 kg/ha, after 14 days
# Method in brief: as §2
Structure (SMILES),"damage to plants, Rg ([1]; 1 kg/ha)","damage to plants, Rg ([1]; 5 kg/ha)","damage to plants, Wh ([2]; 1 kg/ha)","damage to plants, Wh ([2]; 5 kg/ha)","damage to plants, Ip ([3]; 1 kg/ha)","damage to plants, Ip ([3]; 5 kg/ha)","damage to plants, Jm ([4]; 1 kg/ha)","damage to plants, Jm ([4]; 5 kg/ha)","damage to plants, Ms ([5]; 1 kg/ha)","damage to plants, Ms ([5]; 5 kg/ha)","damage to plants, Rg ([6]; 1 kg/ha)","damage to plants, Rg ([6]; 5 kg/ha)","damage to plants, Sf ([7]; 1 kg/ha)","damage to plants, Sf ([7]; 5 kg/ha)","herbicidal damage, Mz [8]","herbicidal damage, Rc [9]","herbicidal damage, Ct [10]","herbicidal damage, Sb [11]","damage to test plants, Mz [12]","damage to test plants, Rc [13]",further results
COC(=O)C(C)Oc1ccc(Nc2ccc(Br)cc2[N+](=O)[O-])cc1 (stereo not drawn) [Compound 29],2,3 (3 represents 75 to 99% kill),2,3+ (3+ represents 100% kill),0 (0 represents 0 to 25% damage),0 (0 represents 0 to 25% damage),3 (3 represents 75 to 99% kill),3+ (3+ represents 100% kill),0 (0 represents 0 to 25% damage),0 (0 represents 0 to 25% damage),3 (3 represents 75 to 99% kill),3+ (3+ represents 100% kill),0 (0 represents 0 to 25% damage),0 (0 represents 0 to 25% damage),1,3,0 (0 is 0 to 20% damage),0 (0 is 0 to 20% damage),5,5,"damage to test plants, Ww [14]: 4; damage to test plants, Am [15]: 0 (0 is 0 to 20% damage); damage to test plants, Ca [16]: 0 (0 is 0 to 20% damage); damage to test plants, Ct [17]: 0 (0 is 0 to 20% damage); damage to test plants, Ip [18]: 0 (0 is 0 to 20% damage); damage to test plants, Sy [19]: 2; damage to test plants, Sb [20]: 0 (0 is 0 to 20% damage)"
COC(=O)C(C)Oc1ccc(N(C)c2ccc(Cl)cc2[N+](=O)[O-])cc1 (stereo not drawn) [Compound 27],1,3 (3 represents 75 to 99% kill),2,3+ (3+ represents 100% kill),0 (0 represents 0 to 25% damage),0 (0 represents 0 to 25% damage),3+ (3+ represents 100% kill),3+ (3+ represents 100% kill),0 (0 represents 0 to 25% damage),0 (0 represents 0 to 25% damage),3+ (3+ represents 100% kill),3+ (3+ represents 100% kill),0 (0 represents 0 to 25% damage),0 (0 represents 0 to 25% damage),1,5,0 (0 is 0 to 20% damage),0 (0 is 0 to 20% damage),5,4,"damage to test plants, Ww [14]: 4; damage to test plants, Am [15]: 0 (0 is 0 to 20% damage); damage to test plants, Ca [16]: 0 (0 is 0 to 20% damage); damage to test plants, Ct [17]: 0 (0 is 0 to 20% damage); damage to test plants, Ip [18]: 0 (0 is 0 to 20% damage); damage to test plants, Sy [19]: 0 (0 is 0 to 20% damage); damage to test plants, Sb [20]: 0 (0 is 0 to 20% damage)"
